According to US20240269139A1, “COMPOUNDS FOR TARGETED PROTEIN DEGRADATION OF KINASES” (DANA-FARBER CANCER INSTITUTE, INC., priority 2020, published 2024):
Like-named read-outs stand apart in the source and are kept apart here.

Columns and labels:
Format in all cases: cell-based
[1] = target: protein kinases (human kinome) (Homo sapiens, UniProt P50613); settings: for logFC CDK7: CDK7 P50613
[2] = target: protein kinases (human kinome) (Homo sapiens, UniProt P51812); settings: RPS6KA3 (P51812), experiment wp076
[3] = target: T1, protein kinases (human kinome) (Homo sapiens, UniProt Q969Z0); settings: Accession Q969Z0-1, direction down
T1 sequence (Q969Z0 108-631): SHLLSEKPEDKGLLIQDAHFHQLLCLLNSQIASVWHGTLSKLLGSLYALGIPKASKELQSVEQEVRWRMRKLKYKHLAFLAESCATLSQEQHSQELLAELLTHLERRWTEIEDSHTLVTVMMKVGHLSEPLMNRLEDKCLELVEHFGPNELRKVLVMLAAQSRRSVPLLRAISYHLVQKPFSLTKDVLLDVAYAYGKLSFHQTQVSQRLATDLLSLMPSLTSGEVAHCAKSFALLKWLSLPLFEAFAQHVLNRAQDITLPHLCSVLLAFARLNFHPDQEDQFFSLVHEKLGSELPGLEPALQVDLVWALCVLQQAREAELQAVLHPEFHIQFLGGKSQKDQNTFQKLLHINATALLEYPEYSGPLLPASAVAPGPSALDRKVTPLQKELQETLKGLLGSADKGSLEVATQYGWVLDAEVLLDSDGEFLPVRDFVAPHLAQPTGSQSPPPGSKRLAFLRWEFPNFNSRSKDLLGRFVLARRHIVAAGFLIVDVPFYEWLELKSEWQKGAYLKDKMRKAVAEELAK

[4] = target: protein kinases (human kinome) (Homo sapiens, UniProt Q00535); settings: for logFC of CDK5: Accession Q00535
Sequence of protein kinases (human kinome) (Homo sapiens, UniProt Q00535) (Q00535 whole entry): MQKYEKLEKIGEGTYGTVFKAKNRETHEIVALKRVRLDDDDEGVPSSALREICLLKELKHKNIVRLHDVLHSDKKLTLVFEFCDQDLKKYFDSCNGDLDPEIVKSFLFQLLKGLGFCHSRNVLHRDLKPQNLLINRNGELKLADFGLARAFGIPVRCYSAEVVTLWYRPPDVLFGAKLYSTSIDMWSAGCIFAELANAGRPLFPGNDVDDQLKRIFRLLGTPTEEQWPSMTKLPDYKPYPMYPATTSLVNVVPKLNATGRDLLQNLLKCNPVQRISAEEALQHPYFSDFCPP

[5] = target: protein kinases (human kinome) (Homo sapiens, UniProt Q13233); settings: experiment wp105
[6] = target: protein kinases (human kinome) (Homo sapiens, UniProt Q14004); settings: for logFC CDK13: Accession Q14004-1
Sequence of protein kinases (human kinome) (Homo sapiens, UniProt Q14004) (Q14004 whole entry): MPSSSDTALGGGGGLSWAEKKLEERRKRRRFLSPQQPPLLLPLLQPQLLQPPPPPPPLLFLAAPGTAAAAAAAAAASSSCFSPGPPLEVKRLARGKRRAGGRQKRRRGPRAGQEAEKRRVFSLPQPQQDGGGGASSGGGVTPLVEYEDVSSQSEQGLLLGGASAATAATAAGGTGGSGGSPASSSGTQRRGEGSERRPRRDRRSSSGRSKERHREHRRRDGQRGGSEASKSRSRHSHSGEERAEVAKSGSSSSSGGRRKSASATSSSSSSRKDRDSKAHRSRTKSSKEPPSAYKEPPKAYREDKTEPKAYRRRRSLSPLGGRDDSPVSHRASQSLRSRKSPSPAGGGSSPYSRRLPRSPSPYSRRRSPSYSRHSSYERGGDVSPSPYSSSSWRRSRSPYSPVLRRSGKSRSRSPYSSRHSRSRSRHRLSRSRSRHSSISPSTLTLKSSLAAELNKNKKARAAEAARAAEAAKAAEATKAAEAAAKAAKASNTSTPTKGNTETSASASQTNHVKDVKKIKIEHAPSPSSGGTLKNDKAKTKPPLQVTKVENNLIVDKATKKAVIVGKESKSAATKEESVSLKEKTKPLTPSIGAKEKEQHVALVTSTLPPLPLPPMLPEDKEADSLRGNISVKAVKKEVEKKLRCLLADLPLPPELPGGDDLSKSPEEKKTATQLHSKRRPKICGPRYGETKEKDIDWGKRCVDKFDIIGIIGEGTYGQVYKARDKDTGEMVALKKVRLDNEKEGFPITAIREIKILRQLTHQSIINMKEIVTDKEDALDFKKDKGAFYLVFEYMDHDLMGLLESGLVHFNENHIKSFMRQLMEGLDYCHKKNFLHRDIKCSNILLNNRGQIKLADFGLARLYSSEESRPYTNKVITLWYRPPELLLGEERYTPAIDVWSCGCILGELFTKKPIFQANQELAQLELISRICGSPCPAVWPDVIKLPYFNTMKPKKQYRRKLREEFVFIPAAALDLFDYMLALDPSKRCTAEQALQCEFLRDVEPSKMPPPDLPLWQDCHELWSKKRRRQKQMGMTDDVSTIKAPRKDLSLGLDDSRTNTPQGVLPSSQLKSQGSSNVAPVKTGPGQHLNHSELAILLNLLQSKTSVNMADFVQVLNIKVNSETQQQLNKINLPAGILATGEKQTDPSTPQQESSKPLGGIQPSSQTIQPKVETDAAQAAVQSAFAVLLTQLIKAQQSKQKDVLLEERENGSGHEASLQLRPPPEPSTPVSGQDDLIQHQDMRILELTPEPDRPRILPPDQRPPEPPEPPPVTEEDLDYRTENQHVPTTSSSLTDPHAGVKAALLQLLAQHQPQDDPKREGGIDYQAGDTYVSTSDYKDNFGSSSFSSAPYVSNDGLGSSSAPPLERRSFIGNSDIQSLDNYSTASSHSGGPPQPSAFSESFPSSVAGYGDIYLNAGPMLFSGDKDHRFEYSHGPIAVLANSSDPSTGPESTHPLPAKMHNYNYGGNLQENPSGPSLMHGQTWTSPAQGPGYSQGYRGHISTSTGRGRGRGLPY

[7] = target: protein kinases (human kinome) (Homo sapiens, UniProt Q8NI60); settings: experiment wp160, 1 hr
Sequence of protein kinases (human kinome) (Homo sapiens, UniProt Q8NI60) (Q8NI60 163-647): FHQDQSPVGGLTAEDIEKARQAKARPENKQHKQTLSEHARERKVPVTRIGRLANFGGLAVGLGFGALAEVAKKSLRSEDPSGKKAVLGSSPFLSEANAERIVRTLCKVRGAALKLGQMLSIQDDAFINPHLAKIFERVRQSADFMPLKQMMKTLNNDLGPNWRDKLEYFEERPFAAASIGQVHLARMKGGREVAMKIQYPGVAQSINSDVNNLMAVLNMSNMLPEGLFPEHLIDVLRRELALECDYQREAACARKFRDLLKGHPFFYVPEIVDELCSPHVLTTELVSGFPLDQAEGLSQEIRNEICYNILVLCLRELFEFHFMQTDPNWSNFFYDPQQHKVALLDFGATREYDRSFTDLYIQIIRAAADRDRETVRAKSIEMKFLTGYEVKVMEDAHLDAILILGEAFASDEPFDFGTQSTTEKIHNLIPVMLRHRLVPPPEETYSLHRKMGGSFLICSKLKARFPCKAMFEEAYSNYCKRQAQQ

[8] = target: T2, protein kinases (human kinome) (Homo sapiens, UniProt Q96L34); settings: for logFC MARK4: Accession Q96L34-1
T2 sequence (Q96L34 1-752): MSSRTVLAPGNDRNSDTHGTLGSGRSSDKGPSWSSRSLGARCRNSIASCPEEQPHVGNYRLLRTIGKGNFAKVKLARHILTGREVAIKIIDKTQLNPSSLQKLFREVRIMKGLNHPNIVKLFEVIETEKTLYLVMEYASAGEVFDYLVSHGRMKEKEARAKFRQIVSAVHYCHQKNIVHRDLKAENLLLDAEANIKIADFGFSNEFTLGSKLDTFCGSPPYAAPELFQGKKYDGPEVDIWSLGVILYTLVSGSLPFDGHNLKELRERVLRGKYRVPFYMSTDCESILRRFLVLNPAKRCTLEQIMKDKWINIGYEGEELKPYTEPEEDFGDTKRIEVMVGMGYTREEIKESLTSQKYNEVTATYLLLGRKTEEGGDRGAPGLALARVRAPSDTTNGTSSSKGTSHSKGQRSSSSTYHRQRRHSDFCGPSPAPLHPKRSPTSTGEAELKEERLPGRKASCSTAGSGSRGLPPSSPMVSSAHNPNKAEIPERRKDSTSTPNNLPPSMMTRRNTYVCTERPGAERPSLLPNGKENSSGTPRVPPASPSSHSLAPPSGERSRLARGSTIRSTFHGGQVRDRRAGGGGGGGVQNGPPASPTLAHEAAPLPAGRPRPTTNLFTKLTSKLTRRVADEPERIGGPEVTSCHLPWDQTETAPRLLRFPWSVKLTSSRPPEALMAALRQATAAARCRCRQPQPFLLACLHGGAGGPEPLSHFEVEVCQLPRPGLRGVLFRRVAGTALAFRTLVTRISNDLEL

[9] = target: protein kinases (human kinome) (Homo sapiens, UniProt Q9HBH9); settings: for logFC MKNK2 (Q9HBH9-1): direction down; for logFC: MKNK2 (Q9HBH9-1)
Sequence of protein kinases (human kinome) (Homo sapiens, UniProt Q9HBH9) (Q9HBH9 whole entry): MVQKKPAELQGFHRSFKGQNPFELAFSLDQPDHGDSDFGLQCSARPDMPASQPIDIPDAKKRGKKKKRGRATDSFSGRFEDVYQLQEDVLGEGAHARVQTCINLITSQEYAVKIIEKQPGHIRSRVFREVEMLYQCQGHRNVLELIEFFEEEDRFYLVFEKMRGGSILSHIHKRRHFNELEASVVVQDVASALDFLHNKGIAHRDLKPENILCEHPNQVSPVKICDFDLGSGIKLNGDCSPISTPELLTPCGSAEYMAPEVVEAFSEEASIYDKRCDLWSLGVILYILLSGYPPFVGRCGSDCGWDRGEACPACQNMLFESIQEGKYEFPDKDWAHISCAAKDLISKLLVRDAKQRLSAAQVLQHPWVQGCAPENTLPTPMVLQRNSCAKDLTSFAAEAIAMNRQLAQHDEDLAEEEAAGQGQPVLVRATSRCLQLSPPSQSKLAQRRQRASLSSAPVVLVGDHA

[10] = target: protein kinases (human kinome) (Homo sapiens, UniProt Q9NYV4)
Sequence of protein kinases (human kinome) (Homo sapiens, UniProt Q9NYV4) (Q9NYV4 whole entry): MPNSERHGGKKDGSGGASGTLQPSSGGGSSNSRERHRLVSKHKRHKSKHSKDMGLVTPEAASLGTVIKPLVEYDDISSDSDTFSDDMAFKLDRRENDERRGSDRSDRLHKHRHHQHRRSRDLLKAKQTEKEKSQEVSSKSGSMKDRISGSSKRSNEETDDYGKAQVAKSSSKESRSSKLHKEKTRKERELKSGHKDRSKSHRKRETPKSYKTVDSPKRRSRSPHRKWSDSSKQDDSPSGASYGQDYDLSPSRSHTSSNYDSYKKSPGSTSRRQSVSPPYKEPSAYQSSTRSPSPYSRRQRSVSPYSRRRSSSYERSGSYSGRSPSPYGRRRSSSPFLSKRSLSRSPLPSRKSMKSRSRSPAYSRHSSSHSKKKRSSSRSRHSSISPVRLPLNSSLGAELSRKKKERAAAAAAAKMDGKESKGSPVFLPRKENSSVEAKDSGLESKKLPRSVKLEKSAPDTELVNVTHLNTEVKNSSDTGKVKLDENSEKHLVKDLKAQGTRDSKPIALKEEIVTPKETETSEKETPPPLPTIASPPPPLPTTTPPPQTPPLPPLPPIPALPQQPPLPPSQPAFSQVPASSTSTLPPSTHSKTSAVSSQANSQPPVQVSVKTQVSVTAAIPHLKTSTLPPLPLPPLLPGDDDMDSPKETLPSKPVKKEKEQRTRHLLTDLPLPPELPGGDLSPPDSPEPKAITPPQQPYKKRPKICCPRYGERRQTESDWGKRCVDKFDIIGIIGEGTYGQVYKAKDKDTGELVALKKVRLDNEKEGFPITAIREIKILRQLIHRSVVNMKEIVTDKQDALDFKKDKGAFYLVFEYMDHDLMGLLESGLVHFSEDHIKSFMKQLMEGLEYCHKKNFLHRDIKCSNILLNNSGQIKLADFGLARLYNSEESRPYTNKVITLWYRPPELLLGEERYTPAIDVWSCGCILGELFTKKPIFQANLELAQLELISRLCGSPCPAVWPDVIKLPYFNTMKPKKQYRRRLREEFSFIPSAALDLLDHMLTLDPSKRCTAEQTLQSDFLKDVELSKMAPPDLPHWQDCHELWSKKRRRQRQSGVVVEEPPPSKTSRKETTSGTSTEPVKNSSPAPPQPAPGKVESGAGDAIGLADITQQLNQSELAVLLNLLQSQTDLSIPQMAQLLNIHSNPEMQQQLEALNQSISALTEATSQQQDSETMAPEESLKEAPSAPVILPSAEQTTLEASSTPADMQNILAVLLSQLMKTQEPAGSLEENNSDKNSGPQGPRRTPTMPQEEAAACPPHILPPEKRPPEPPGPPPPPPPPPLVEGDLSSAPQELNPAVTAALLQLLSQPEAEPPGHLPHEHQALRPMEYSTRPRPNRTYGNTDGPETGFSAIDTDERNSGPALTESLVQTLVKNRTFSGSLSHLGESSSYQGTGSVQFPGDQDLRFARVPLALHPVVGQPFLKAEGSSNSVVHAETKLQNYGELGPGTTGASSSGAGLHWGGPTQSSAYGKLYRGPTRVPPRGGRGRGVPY

Sequence of protein kinases (human kinome) (Homo sapiens, UniProt P50613) (P50613 whole entry): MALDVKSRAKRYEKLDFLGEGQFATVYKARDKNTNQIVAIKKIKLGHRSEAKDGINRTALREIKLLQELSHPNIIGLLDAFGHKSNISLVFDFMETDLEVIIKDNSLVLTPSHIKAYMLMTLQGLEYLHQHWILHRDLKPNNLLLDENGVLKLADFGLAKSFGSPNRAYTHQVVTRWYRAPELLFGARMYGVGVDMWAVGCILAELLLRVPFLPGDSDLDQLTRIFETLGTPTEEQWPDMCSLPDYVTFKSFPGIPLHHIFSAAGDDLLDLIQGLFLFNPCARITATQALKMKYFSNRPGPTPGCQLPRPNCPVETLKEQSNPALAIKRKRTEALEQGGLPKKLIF

## CNC(=O)c1ccccc1Nc1cc(Nc2ccc(N3CCN(CCOCCOCCNC(=O)CNc4cccc5c4C(=O)N(C4CCC(=O)NC4=O)C5=O)CC3)cc2OC)ncc1C(F)(F)F (stereo not shown) [MFH.5.103.1]
[1]; CDK7 (P50613) protein abundance, degrader vs DMSO, down
  logFC: −0.5098
[1]; experiment wp076
  logFC CDK7: −0.5098
[2]
  logFC: −1.165
[2]; direction down
  logFC: −1.165
[3]; experiment wp076
  logFC TBRG4: −0.3858

## CC(C)S(=O)(=O)c1ccccc1Nc1nc(Nc2ccc(N3CCN(CCOCCNC(=O)CNc4cccc5c4C(=O)N(C4CCC(=O)NC4=O)C5=O)CC3)cc2)ncc1Cl (stereo not shown) [SK.3.91]
[1]; experiment wp016
  logFC CDK7: −0.5236
[1]; experiment wp105
  logFC CDK7: −0.6307
[1]; experiment wp107
  logFC CDK7: −0.4632
[1]; experiment wp114
  logFC CDK7: −0.5255
[1]; experiment wp172
  logFC CDK7: −1.186
[4]; experiment wp016
  logFC of CDK5: −1.126
[4]; experiment wp016, 1 uM
  logFC of CDK5: −1.429
[4]; experiment wp103
  logFC of CDK5: −1.043
[4]; experiment wp105
  logFC of CDK5: −0.931
[4]; Experiment wp105, direction of change down
  logFC CDK5 (Q00535): −0.931
[4]; Experiment wp107
  logFC CDK5 (Q00535): −1.014
[4]; Experiment wp114
  logFC CDK5 (Q00535): −0.468
[4]; Experiment wp114, direction of change down
  logFC CDK5 (Q00535): −0.468
[4]; Experiment wp160, 2 hr
  logFC CDK5 (Q00535): −0.6265
[4]; Experiment wp172
  logFC CDK5 (Q00535): −1.304
[4]; experiment wp016, 1 uM, direction of change down
  logFC CDK5 (Q00535): −1.429
[4]; experiment wp016, direction of change down
  logFC CDK5 (Q00535): −1.126
[4]; experiment wp103, direction of change down
  logFC CDK5 (Q00535): −1.043
[4]; experiment wp107, direction of change down
  logFC CDK5 (Q00535): −1.014
[4]; experiment wp133, 2 hr
  logFC CDK5 (Q00535): −0.6608
[4]; experiment wp133, 2 hr, direction of change down
  logFC CDK5 (Q00535): −0.6608
[4]; experiment wp133, 4 hr
  logFC CDK5 (Q00535): −1.242
[4]; experiment wp133, 4 hr, direction of change down
  logFC CDK5 (Q00535): −1.242
[4]; experiment wp160, 1 hr
  logFC CDK5 (Q00535): −0.3257
[4]; experiment wp160, 1 hr, direction of change down
  logFC CDK5 (Q00535): −0.3257
[4]; experiment wp160, 2 hr, direction of change down
  logFC CDK5 (Q00535): −0.6265
[4]; experiment wp160, 4 hr
  logFC CDK5 (Q00535): −1.197
[4]; experiment wp160, 4 hr, direction of change down
  logFC CDK5 (Q00535): −1.197
[4]; experiment wp172, direction of change down
  logFC CDK5 (Q00535): −1.304
[5]; Accession Q13233, direction down
  logFC MAP3K1: −0.3258
[5]; MAP3K1 (Q13233)
  logFC MAP3K1: −0.3258
[6]; experiment wp016
  logFC CDK13: −0.6046
  logFC CDK13 (Q14004-1): −0.6046
[6]; experiment wp016, 1 uM
  logFC CDK13: −0.5749
[6]; experiment wp103
  logFC CDK13: −0.4833
  logFC CDK13 (Q14004-1): −0.4833
[6]; experiment wp105
  logFC CDK13: −0.4649
  logFC CDK13 (Q14004-1): −0.4649
[6]; experiment wp107
  logFC CDK13: −0.7112
  logFC CDK13 (Q14004-1): −0.7112
[6]; experiment wp133, 4 hr
  logFC CDK13: −0.5562
  logFC CDK13 (Q14004-1): −0.5562
[6]; experiment wp160, 4 hr
  logFC CDK13: −0.4805
  logFC CDK13 (Q14004-1): −0.4805
[6]; experiment wp172
  logFC CDK13: −0.859
[6]; CDK13 (Q14004-1), experiment wp016, 1 uM
  logFC: −0.5749
[6]; Experiment wp172
  logFC CDK13 (Q14004-1): −0.859
[7]
  logFC COQ8A (Q8N160-1): −0.7959
  logFC COQ8A (Q8NI60-1): −0.7959
[3]; experiment wp160, 1 hr
  logFC TBRG4: −0.9113
[8]; experiment wp103
  logFC MARK4: −1.326
  logFC MARK4 (Q96L34-1): −1.326
[8]; experiment wp107
  logFC MARK4: −1.292
  logFC MARK4 (Q96L34-1): −1.292
[8]; experiment wp114
  logFC MARK4: −1.3
  logFC MARK4 (Q96L34-1): −1.3
[8]; experiment wp133, 2 hr
  logFC MARK4: −0.6282
  logFC MARK4 (Q96L34-1): −0.6282
[8]; experiment wp133, 4 hr
  logFC MARK4: −1.537
  logFC MARK4 (Q96L34-1): −1.537
[8]; experiment wp160, 4 hr
  logFC MARK4: −1.529
  logFC MARK4 (Q96L34-1): −1.529
[9]; Experiment wp133, 1 hr
  logFC MKNK2 (Q9HBH9-1): −0.5168
[9]; Experiment wp133, 2 hr
  logFC MKNK2 (Q9HBH9-1): −0.5303
[9]; Experiment wp133, 4 hr
  logFC MKNK2 (Q9HBH9-1): −0.8537
[9]; experiment wp133, 1 hr
  logFC: −0.5168
[9]; experiment wp133, 2 hr
  logFC: −0.5303
[9]; experiment wp133, 4 hr
  logFC: −0.8537
[10]; Accession Q9NYV4-1, experiment wp016
  logFC CDK12: −1.134
[10]; Accession Q9NYV4-1, experiment wp016, 1 uM
  logFC CDK12: −0.9325
[10]; Accession Q9NYV4-1, experiment wp172
  logFC CDK12: −1.234
[10]; CDK12 (Q9NYV4-1), experiment wp016
  logFC CDK12: −1.134
[10]; CDK12 (Q9NYV4-1), experiment wp016, 1 uM
  logFC CDK12: −0.9325
[10]; CDK12 (Q9NYV4-1), experiment wp172
  logFC CDK12: −1.234
